Results published in US20100004194A1, “USE OF ISOMALTULOSE IN FOOD PRODUCTS HAVING A REGENERATIVE EFFECT” (priority 2006, published 2010).
“Also recorded” adds a separate entry of the source.

Legend:
[1] = Second meal effect crossover study: respiratory quotient over a test period including two meals and 30-min treadmill exertion; type: in vivo, human; settings: 20 subjects
Protocol: The test was a crossover study with 20 subjects. In each subject, the effect of isomaltulose vs. sucrose/glucose syrup was tested.
The test period comprised two meals into which the test substances were integrated: on the one hand a breakfast, which consisted of a drink (250 ml, 10% carbohydrates=25 g of test substance) and biscuits (approx. 140 g, also with 25 g of test substance), and on the other hand a lunch consisting of mini pizzas, an apple and a refreshment drink. The carbohydrate quantity, consumed per portion of shortpastry, of wheat starch of the flour was, at about 50-60 g carbohydrates, at the same level in all biscuit variants. Each test period comprised two postprandial phases.
The respiratory quotient was determined first at rest, then during the subsequent 30-min exertion at moderate intensity (treadmill uphill protocol 4 km/h 5% gradient), at the end of the 30-minute post-exertion phase and up to 4 hours after consumption of the second meal (the lunch).

[2] = 3-armed crossover study: respiratory quotient before, during and after physical exertion (bicycle ergometer, Wingate test) with test drinks; type: in vivo, human; settings: 21 male endurance athletes
Protocol: The effect of isomaltulose (Palatinose™) on the regulation of the metabolism before, during and after physical exertion was examined and compared with the consumption of maltodextrin or a placebo which has a non-glycaemic effect and is of equivalent sweetness.
The test was carried out as a 3-armed crossover study on 21 subjects. In each subject, the effect of a non-glycaemic drink (placebo=sweetened mineral water) was tested versus a drink containing maltodextrin versus isomaltulose.
The subjects were male endurance athletes with several years' training experience (VO2max>55 ml/kg KG) aged between 23 and 50.
In step ergometry on a bicycle (100 watts at the start; increased by 50 watts/3 min), performance was first determined in the range of from 70-75% of the maximum oxygen uptake. After a sufficient regeneration phase of at least 5 days, the first testing was carried out in randomised order. The testing was carried out in the morning, at the same time in each case, 3-4 hours after a standardised breakfast.
Standardised endurance exertion was first carried out on a bicycle ergometer at 70-75% of the VO2max over 90 min. […] The respiratory quotient (RQ) was determined at the moments −30, −15, 0, 15, 30, 45, 60, 75, 90 min before or during the exertion, immediately after completion of the Wingate test and also 3, 15, 30, 60 and 120 min after end of exertion. […]

## OC[C@H]1O[C@H](OC[C@H]2OC(O)(CO)[C@@H](O)[C@@H]2O)[C@H](O)[C@@H](O)[C@@H]1O (stereo partly shown) [isomaltulose]
[1]; breakfast drink with 25 g plus biscuits with 25 g test substance, versus sucrose/glucose syrup breakfast
  RQ after consumption of the breakfast: lower than after the sucrose/glucose syrup breakfast
[1]; up to 4 hours after the lunch, versus sucrose/glucose syrup
  degree by which the RQ was lower after consumption of a second meal (lunch): maintained
[2]; 250 ml drinks with 25 g carbohydrate 30 min prior, at start, after 45 min and after Wingate test (2x250 ml), 90 min at 70-75% VO2max
  respiratory quotient (RQ) after the physical exertion versus immediately prior to the exertion (percentage change): substantially equal to or even lower; also recorded: substantially equal
[2]; isomaltulose drink compared with maltodextrin drink or placebo
  RQ throughout the test phase: lower RQ
